# In patent US20030022250A1, “Functional IgE test methods and compositions” (priority 2001, published 2003):
# Tested on: RBL SX-38 cells
# Assay: [3H]5-HT release (degranulation) from labeled and sensitized RBL SX-38 cells
# Assay type: cell-based, rat
# Details: pre-incubation 5 minutes at 37 C; 0.1 mM NECA, 30% D2O or 5 μg/ml cytochalasin B
# Experimental: As specifically exemplified herein, we have labeled RBL SX-38 cells with ^3H-serotonin (5HT). A fraction of the tritiated 5-HT incorporated into cellular granules is released from the cells (in the process of degranulation) following their activation. The percentage of labeled 5-HT release, where the label is a radioactive moiety, is calculated as follows: disintegrations per minute (dpm) in the supernatant divided by the sum of the dpm in the supernatant plus the dpm in the residual cells. This formula is as follows:
# % release =100×(dpm in the supematant)/(dpm in the supernatant+dpm in the residual cells).
# For each experiment, a positive control, activation of the cells with anti-IgE is determined. The % release with anti-IgE (usually about 30-60% of the total 5-HT) is set at 100%. Degranulation with a given allergen is then expressed as a percent of that seen with anti-IgE. […]
# Triggering is initiated by adding 5 μl of allergenic extracts (diluted to the appropriate concentration) or goat anti-human-IgE (3 μg/ml). […] Non-specific background release is assessed using negative controls, which have 5 μl PIPES buffer added instead of extract or anti-IgE. After 45 minutes, the plates are then removed and the tritium content of a 50 μl aliquot from the supernatant of each sample, in 5 ml of scintillation fluid, is determined. […]
structure (smiles),measurement,value
"CCNC(=O)[C@H]1O[C@@H](n2cnc3c(N)ncnc32)[C@H](O)[C@@H]1O [NECA, N-ethylcarboxamido adenosine]",effect on threshold for triggering by allergen,lowers the threshold for triggering
